PubChem BioAssay AID1078 (Emory University Molecular Libraries Screening Center, 2008)

Target: Estrogen receptor (Homo sapiens) (UniProt P03372)
Experiment: inhibitors of estradiol-driven ERα reporter activity – HEC-1 cells, luciferase reporter, 1 nM E2, orthogonal assay for ERα coactivator binding inhibitor project, dose response (AID 1078)
Settings: ERE-luciferase reporter, 1 nM E2, 24 h

Chain of Estrogen receptor (Homo sapiens) (P03372 whole entry, looked up): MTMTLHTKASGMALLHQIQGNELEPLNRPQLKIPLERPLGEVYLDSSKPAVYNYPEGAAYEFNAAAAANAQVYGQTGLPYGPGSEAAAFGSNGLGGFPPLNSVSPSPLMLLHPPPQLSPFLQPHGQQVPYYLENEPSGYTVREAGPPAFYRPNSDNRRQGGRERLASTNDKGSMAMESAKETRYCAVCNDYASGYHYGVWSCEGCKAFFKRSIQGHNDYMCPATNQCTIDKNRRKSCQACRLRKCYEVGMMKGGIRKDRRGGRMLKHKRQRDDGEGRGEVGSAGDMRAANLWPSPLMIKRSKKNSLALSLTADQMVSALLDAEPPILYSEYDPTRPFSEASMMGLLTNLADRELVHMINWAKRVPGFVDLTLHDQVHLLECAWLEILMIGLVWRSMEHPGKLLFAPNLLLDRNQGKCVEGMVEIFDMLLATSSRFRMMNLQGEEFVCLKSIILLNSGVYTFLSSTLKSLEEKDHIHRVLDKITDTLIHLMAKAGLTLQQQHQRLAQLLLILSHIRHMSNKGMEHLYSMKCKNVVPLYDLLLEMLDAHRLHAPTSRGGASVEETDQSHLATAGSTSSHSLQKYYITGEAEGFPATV

Work on `Cc1ccc(-n2c(=O)c(C#N)cc3c(=O)n4cccc(C)c4nc32)cc1` yielded an IC50 of 4.65 µM.
